# Legend:
# [1] = tested on: LNCaP cells; assay: Cell cycle distribution by flow cytometry; type: cell-based, human
# Description: (§1) Cell cycle distribution and Annexin V/Propidium iodide (PI) positive cells were analyzed using flow cytometry. In brief, first the cells were seeded and treated with 0, 10, 20 and 40 μM conjugate in complete medium for 24 h. This was followed by trypsinizing and fixing in 70% ethanol, and finally washing with PBS. Subsequently, the cells were treated with RNase A (50 μg/ml), stained with PI (50 μg/ml) and incubated in the dark for 30 min at room temperature and analyzed by flow cytometry for cell cycle distribution. For apoptosis, the conjugate treated cells were stained with Alexa-Fluor 488-conjugated Annexin-V using the Vybrant-Apoptosis Assay Kit from Invitrogen (USA) as per the manufacturer’s protocol. The stained cells were then analyzed by fluorescence activated cell sorting (FACS Calibur, BD Biosciences, San Jose, CA, USA) and the data were standardized using Cell Quest 3.3 software.
# [2] = tested on: PC-3 cells; assay: Cell cycle distribution by flow cytometry; type: cell-based, human; details: PC-3, 40 μM, 24 h (control 22%)
# Description: as §1
smiles,measurement,setting,value
"COc1cc(/C=C/c2ccc(O)c(/C=N/NC(N)=S)c2)cc(OC)c1 [conjugate, Pterostilbene-isothiocyanate conjugate]",accumulation of cells in G2/M phase,"[1]; increasing doses of conjugate, 24 h",16–35%
same,cells in G2/M phase,"[1]; treated cells, 24 h (control 11%)",35%
same,cells arrested in G2/M phase,[2],approximately 50%

# Source: PMC3974779, “Pterostilbene-Isothiocyanate Conjugate Suppresses Growth of Prostate Cancer Cells Irrespective of Androgen Receptor Status” (PLoS ONE, 2014)
